According to ChEMBL document CHEMBL1909529, “Molecular dynamics simulations and MM/GBSA methods to investigate binding mechanisms of aminomethylpyrimidine inhibitors with DPP-IV” (Bioorg Med Chem Lett, 2011):
pIC50: −log10 of the molar value.

Target: Dipeptidyl peptidase 4 (Homo sapiens, UniProt P27487)
Experiment: Inhibition of DPP4

Sequence of Dipeptidyl peptidase 4 (P27487 whole entry): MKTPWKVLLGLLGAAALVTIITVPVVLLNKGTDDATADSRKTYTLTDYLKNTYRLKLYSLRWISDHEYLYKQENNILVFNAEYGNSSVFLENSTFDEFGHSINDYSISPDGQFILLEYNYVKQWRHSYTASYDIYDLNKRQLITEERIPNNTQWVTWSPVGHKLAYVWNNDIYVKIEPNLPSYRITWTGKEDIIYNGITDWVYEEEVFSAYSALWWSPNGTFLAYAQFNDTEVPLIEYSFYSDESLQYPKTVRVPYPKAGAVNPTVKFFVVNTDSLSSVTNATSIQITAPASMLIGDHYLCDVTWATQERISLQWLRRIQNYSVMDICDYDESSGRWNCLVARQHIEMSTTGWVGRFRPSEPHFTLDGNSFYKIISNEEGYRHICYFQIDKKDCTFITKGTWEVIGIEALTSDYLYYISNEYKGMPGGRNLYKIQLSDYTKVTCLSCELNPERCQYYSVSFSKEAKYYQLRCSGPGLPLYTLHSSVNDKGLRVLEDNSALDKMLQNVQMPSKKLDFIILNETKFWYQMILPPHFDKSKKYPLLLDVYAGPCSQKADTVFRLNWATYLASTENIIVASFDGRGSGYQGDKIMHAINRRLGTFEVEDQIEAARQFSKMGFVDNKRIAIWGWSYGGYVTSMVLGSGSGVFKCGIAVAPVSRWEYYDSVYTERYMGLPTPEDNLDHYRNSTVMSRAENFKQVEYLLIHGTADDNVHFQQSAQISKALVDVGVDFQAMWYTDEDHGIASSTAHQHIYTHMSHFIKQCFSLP

- pIC50: 8.52
SMILES: NCc1c(N)nc(-c2cc(F)cc(F)c2)nc1-c1ccc(Cl)cc1Cl
